The source of these data is US20090124608A1, “CB2 Receptor Modulators In Neurodegenerative Diseases And Applications Of The Same” (priority 2006, published 2009).

The subject of data set [1] is G93A-SOD1 mice. As to the kind of experiment: Survival of G93A mice, daily i.p. treatment initiated at symptom onset. The class given is in vivo, mouse. The conditions noted are these: for survival interval (symptom onset to sacrifice): vehicle 23.7+/−1.7 days; for Survival Interval Ratio (SIR) / Total Life-Span Ratio (TLR): G93A mice, i.p. daily from onset. The text has this: Hemizygous transgenic male mice with the G93A mutation of the human SOD1 gene (G1H/1) mutation (B6SJL-TgN (SOD1-G93A) 1 Gur) were obtained from Jackson Laboratories and were bred locally with female B6SJL mice (Jackson Laboratory), according to the protocol obtained from the vendor. To decrease the inherent variability in disease onset and survival with these mice, littermate transgenic males (rather than random males from several different litters) were selected to sire subsequent generations of mice.
Determination of symptom onset, randomization and drug treatment of G93A mice. Symptom onset was assessed by blinded observation of changes in hind limb gait; these changes are related to the mouse's inability to support its weight on its hind limbs. At onset, mice initially place their weight on the toes and then quickly fall to full foot placement (as opposed to healthy mice which walk and run on the hind toes); this “toe-to-heel” walking pattern produces an asymmetric gait between hind and fore limbs and a characteristic “wobbling” gait. Mouse groups were randomized based on symptom onset and alternately placed in control and treated groups, e.g., the first mouse to develop hind limb weakness was placed in the control group, the second was injected with test compound and placed in the treatment group, and so on. […] By definition, the onset administration paradigm employed was focused on what we term the “survival interval”—namely the time from onset to end-stage sacrifice.
Mice were sacrificed when any of the following criteria were met: (1) inability to right themselves within 30 seconds when placed on their sides; (2) inability to eat or drink, or move toward food and water placed in low-rimmed dishes on cage floor; (3) loss of more than 10% of total body weight in 24 hours; (4) gross loss of grooming behavior; or (5) labored breathing. Criteria for death were confirmed by a second investigator who is blinded to the group identity of each mouse. The age of symptom onset was subtracted from the age at death for each mouse, and a mean survival interval was calculated for each group. By calculating the ratio of the survival interval of treated groups to the survival interval of untreated littermate controls, a X-fold increase in survival was readily determined.
The effect of chronic administration of cannabinoids on the survival of G93A mice was next examined (FIG. 4). […] The number of days between symptom onset and animal sacrifice was measured (e.g., survival interval). In humans, this is analogous to the time between diagnosis of ALS and death, ranging from 2-5 years.

Data set [2] relates to cannabinoid receptors. As to the kind of experiment: GTPγS binding in end stage spinal cord homogenates from G93A-SOD1 mice, separated by gender. The data set is classed as biochemical, mouse. The conditions noted are these: for 2-AG stimulated G-protein activation remaining on co-incubation with CB2 ligand: 2-AG 3 μM; for 2-AG stimulated G-protein activation remaining on co-incubation with CB2 ligand / HU-210 stimulated G-protein activation remaining on co-incubation with CB2 ligand: ligand 1 μM; for HU-210 stimulated G-protein activation remaining on co-incubation with CB2 ligand: HU-210 100 nM. As to the method: (§1) [^35S]GTPγS binding assays were performed as described previously (Prather et al. 2000a) in a buffer containing 20 mM Hepes, 100 mM NaCl, and 10 mM MgCl2 at pH 7.4. Each binding reaction contained 10 μg of spinal cord membrane protein, the presence or absence of cannabinoid ligands (see following), plus 0.1 nM [^35S]GTPγS (1250 Ci/mmol, Perkin Elmer Life and Analytical Sciences) and […] of GDP to suppress basal G-protein activation. Reactions were incubated for 2 hrs at 30 °C. Non-specific binding was defined by binding observed in the presence of 10 μM of non-radioactive GTPγS. The reaction was terminated by rapid vacuum filtration through glass fiber filters followed by two washes with ice-cold assay buffer. 4 mL of scintiverse® (Fisher Scientific) was added to the filters and radioactivity quantified by scintillation counting.
Harvested spinal cords from the vehicle treated control groups at the end-stage of their disease were separated by gender and used to conduct GTP7S binding experiments, which measure the capability of a ligand to promote or suppress G-protein activation.
It was next determined if the selective CB2 ligands antagonize G-protein activation produced by an endocannabinoid such as 2-AG as well.

A short description of data set [3]: Water solubility and dissolution in vehicles.
The target in data set [4] is CB2 receptors (Homo sapiens, UniProt P34972). The conditions noted are these: Yao et al. 2006, cited from earlier work.
Sequence of CB2 receptors (P34972 whole entry): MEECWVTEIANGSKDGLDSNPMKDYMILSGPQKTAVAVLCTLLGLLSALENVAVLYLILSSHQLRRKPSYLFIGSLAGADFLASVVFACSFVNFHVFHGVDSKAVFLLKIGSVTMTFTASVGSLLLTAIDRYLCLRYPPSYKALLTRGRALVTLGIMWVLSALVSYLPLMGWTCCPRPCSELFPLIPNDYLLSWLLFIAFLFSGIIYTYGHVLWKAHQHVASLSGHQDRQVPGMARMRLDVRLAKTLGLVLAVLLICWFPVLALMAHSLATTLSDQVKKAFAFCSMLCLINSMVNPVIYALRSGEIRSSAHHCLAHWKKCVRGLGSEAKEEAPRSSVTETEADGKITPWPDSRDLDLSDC
In data set [5] the target is CB1 receptors. The conditions noted are these: Yao et al. 2006; read-out: affinity for CB1 receptors; cited from earlier work.
Data set [6] deals with G93A-SOD1 mice. As to the kind of experiment: Motor function test (clinging to perpendicular wire mesh screen for 60 seconds) in G93A mice. The class given is in vivo, mouse. As to the method:
Beginning on the first day of observing symptoms, mice were tested for motor function biweekly until sacrifice. Motor function testing was initiated by gently placing animals on a horizontal wire mesh screen. The screen was slowly rotated to be perpendicular to the ground (90°). The duration that mice were able to hang onto the perpendicular wire mesh up to a maximum of 120 seconds was recorded. Because vehicle treated mice on average lost the ability to cling to the wire mesh for 60 seconds in the middle of their survival curve, this “all or none” response was utilized to compare motor function across all treatment groups. Kaplan-Meier time-to-event statistics were employed to analyze the data. The event was defined as the number of days after symptom onset that each individual animal was no longer able to cling to the wire mesh screen for 60 seconds.
Testing twice a week for the duration of the study provided a quantifiable decline during disease progression. Mice were placed on a horizontal wire mesh screen that was gently inverted to 90°. Kaplan-Meier time-to-event curves were used to analyze the data. The event was defined as the day each animal was no longer able to cling to the perpendicular screen for 60 seconds. […] The disparity between male and female motor function was paralleled by the interval between survival for the genders. Male mice survived an average of 39.6±2.0 (FIG. 6a) days past the onset of symptoms, while females lived 9 days longer than males (p<0.0018*, FIG. 6b). For males and females, loss of motor function preceded death by 20.5 (p<0.0002***) and 19.0 days (p<0.0028**), respectively.

Data set [7] relates to CB1 and CB2 receptors. As to the kind of experiment: [35S]GTPγS binding with selective agonists in mouse spinal cord membranes. The data set is classed as biochemical. To be noted: data not shown. As to the method: as §1
We initially attempted to compare CB 1 and CB2 receptor activation of G-proteins between WT-OE and G93A spinal cord membranes by conducting [^35S]GTPγS binding assays in the presence of selective agonists.

Data set [8] deals with T1, CB1 receptors (Mus musculus, UniProt P47746).
T1 construct: employing membranes prepared from mouse cortex as a relatively pure source of CB1 receptors; from tissue; host or cells: mouse cortex
T1 sequence (P47746 whole entry): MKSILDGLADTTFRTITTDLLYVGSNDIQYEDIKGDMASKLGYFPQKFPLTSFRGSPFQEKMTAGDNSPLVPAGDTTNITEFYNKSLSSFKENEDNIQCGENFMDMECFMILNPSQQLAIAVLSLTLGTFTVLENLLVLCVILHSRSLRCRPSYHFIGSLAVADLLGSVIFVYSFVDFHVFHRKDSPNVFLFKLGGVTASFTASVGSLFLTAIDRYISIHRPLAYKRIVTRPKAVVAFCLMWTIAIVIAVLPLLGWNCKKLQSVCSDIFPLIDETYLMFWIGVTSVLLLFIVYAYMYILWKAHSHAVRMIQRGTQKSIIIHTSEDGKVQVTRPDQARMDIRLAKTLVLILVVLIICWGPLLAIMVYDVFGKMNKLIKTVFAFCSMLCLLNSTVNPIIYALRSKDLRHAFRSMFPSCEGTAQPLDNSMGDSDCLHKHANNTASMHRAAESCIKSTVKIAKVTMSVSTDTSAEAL
Kind of data set: Antagonism of HU-210 G-protein activation in mouse cortex membranes. The class given is biochemical. To be noted: cortical membranes, HU-210 100 nM.
Description: This was accomplished by antagonism experiments employing membranes prepared from mouse cortex as a relatively pure source of CB1 receptors.

Data set [9] deals with CB1/CB2 receptors. Kind of data set: [35S]GTPγS binding, selective antagonism of HU-210, G93A spinal cord membranes. The data set is classed as biochemical, mouse. To be noted: antagonist 3 μM. A general note: GTPγS is a poorly hydrolysed GTP analogue; its binding reports G protein activation.
The subject of data set [10] is CB1/CB2 receptors. As to the kind of experiment: [35S]GTPγS binding, selective antagonism of HU-210, WT-OE spinal cord membranes. The class given is biochemical, mouse. The conditions noted are these: antagonist 3 μM.
The test system of data set [11] is G93A-SOD1 mice. To be noted: administration after the onset of symptoms; Raman et al. 2004, Weydt et al. 2005; cited from earlier work.
The mark [12] stands for this setting: daily injections initiated at symptom onset.
Setting [13] is: G93A spinal cord membranes, HU-210 100 nM.
Where [14] appears, read: WT-OE spinal cord membranes, HU-210 100 nM.

Entries after “also recorded” stand apart in the source; their conditions may differ.

As to `CN1CCCCC1Cn1cc(C(=O)c2cc([N+](=O)[O-])ccc2I)c2ccccc21` (racemic) [AM-1241, (R,S)-(+)-(2-Iodo-5-nitrobenzoyl)-[1-(1-methyl-piperidin-2-ylmethyl-1H-indole-3-yl]methanone], the “increase in survival interval versus vehicle” value in [1] (0.3 mg/kg daily i.p.) is 9.7 days; in [1] (3 mg/kg daily i.p.), 13.2 days. The figures for the “survival interval (symptom onset to sacrifice)” value in data set [1] (0.3 mg/kg daily i.p.) and in data set [1] (3 mg/kg daily i.p.) were 33.4 ± 2.2 days and 36.9 ± 2.8 days, respectively. For the same molecule, the “Survival Interval Ratio (SIR)” value in [1] (0.3 mg/kg) is reported as 1.41; in [1] (3.0 mg/kg), 1.56. Also, the “Total Life-Span Ratio (TLR)” value in data set [1] (0.3 mg/kg) was 1.07; in data set [1] (3.0 mg/kg), 1.11. For the same molecule, in data set [1] (setting [12]), the “extension of total life-span versus controls” value was 11%. For the same molecule, the “living longer after symptom onset than controls (survival interval increase)” value in [1] (setting [12]) amounted to 56%. Moreover, the “survival improvement versus vehicle, females” value in [1] (female G93A mice, 3 mg/kg for AM-1241 and AM630, JTE-907 dose not given) is “did not live significantly longer”. Further, the “survival improvement versus vehicle, males” value in [1] (male G93A mice, 3 mg/kg for AM-1241 and AM630, JTE-907 dose not given) is recorded as 19%. For the same molecule, the “effect on survival of G93A-SOD1 mice” value in data set [1] (treatment initiated at symptom onset) was “pronounced increase in survival”. For the same molecule, the “2-AG stimulated G-protein activation remaining on co-incubation with CB2 ligand” value in [2] (female homogenate) was determined as 11.62±2.2 fmole/mg protein; in data set [2] (male homogenate), 9.09±52.1 fmole/mg protein. Further, the “HU-210 stimulated G-protein activation remaining on co-incubation with CB2 ligand” value in [2] (female homogenates) turned out to be 19.89±1.5 fmole/mg protein; in [2] (male homogenates) it was 9.73±2.5 fmole/mg protein. Moreover, the “effect on G-protein activation” value in [2] (male spinal cord) is given as “relatively small decrease in G-protein activation”. Besides, in data set [3], the “water solubility” value is recorded as “very poor water solubility”. Moreover, the “stable dissolution in tested vehicles” value in [3] (ethanol/water, glycerol, polyethylene glycol, high purity olive oil tested) is given as “achieved only with olive oil”. In data set [4], the “higher affinity for CB2 relative to CB1” value is listed as greater than 80 fold. Moreover, the results for the Ki in data set [4] (read-out: affinity for CB2 receptors) and in data set [5] were 7 nM and 580 nM, respectively. Also, the “improvement in motor function versus vehicle, females” value in data set [6] (female G93A mice, time to loss of ability to cling 60 seconds) was determined as 37%. Also, in data set [6] (female mice, vehicle 19.0 days), the “interval between mean loss of motor function and death, females” value amounted to 9.0 days. In addition, in [6] (male G93A mice, time to loss of ability to cling 60 seconds), the “improvement in motor function versus vehicle, males” value is listed as 81%. In addition, the “loss of motor function, days after observation of symptoms” value in data set [6] (male mice, vehicle 19.1±3.9 days) is 34.5 ± 5.5 days. Moreover, the “interval between mean loss of motor function and death, males” value in data set [6] (male mice, vehicle 20.5 days) is given as 12.8 days. In addition, in data set [7], the “G-protein activation by selective agonist” value is “failed attempts to demonstrate consistent, measurable G-protein activation; also recorded: unable to demonstrate consistent, measurable G-protein activation”.

For `CCCCC/C=C\C/C=C\C/C=C\C/C=C\CCCC(=O)NCCCl` [ACEA, (all Z)-N-(2-cycloethyl)-5,8,11,14-eicosatetraenamide], the “G-protein activation by selective agonist” value in data set [7] is recorded as “failed attempts to demonstrate consistent, measurable G-protein activation; also recorded: unable to demonstrate consistent, measurable G-protein activation”.

In the case of `COc1ccc2c(c1)c(CCN1CCOCC1)c(C)n2C(=O)c1cccc(Cl)c1Cl` [GW-405833, (2,3-dichloro-phenyl)-[5-methoxy-2-methyl-3-(2-morpholin-4-yl-ethyl)-indol-1-yl]-methanone], the “G-protein activation by selective agonist” value in data set [7] is “failed attempts to demonstrate consistent, measurable G-protein activation; also recorded: unable to demonstrate consistent, measurable G-protein activation”.

Consider `CC1=CC[C@@H]2[C@@H](C1)c1ccc(CC#CCCCNS(C)(=O)=O)cc1OC2(C)C` [O-2050, (6aR,1OaR)-3-(1-Methanesulfonylamino-4-hexyn-6-yl)-6a,7,10,10a-tetrahydro-6,6,9-trimethyl-6H-dibenzo[b,d]pyran], for which the “minimal concentration required to completely block HU-210-mediated G-protein activation by CB1 receptors” value in data set [8] is listed as 3 μM. Further, the “net reduction of HU-210-induced G-protein activation” value in data set [9] (G93A membranes) was 25.9 fmole/mg protein; in data set [10] (WT-OE membranes), 28.3 fmoles/mg protein. Further, the “% blockade of HU-210-induced G-protein activation” value in data set [9] (setting [13]) was 45%; in [9] (G93A spinal cord membranes, HU-210 100 nM, listed as 0-2050), 46%; in data set [10] (setting [14]), 92%. Also, the “HU-210 stimulated [35S]GTPγS binding remaining on co-incubation with antagonist” value in data set [9] (setting [13]) was 31.5±4.4 fmole/mg protein; in [10] (setting [14]), 2.5±0.8 fmole/mg protein.

As for `CCCCCc1cc(O)c2c(c1)OC(C)(C)c1ccc(C)cc1-2` [cannabinol], the “delaying motor impairment and prolonging survival in G93A mice” value in data set [11] is “minimally successful”.

As for `CCCCCc1cc(O)c2c(c1)OC(C)(C)[C@@H]1CCC(C)=C[C@@H]21` [Δ^9-THC, Δ^9-Tetrahydrocannabinol], the “delaying motor impairment and prolonging survival in G93A mice” value in data set [11] was “minimally successful”.
